From US10828349B2, “Treatment of microbial infections” (NATIONAL UNIVERSITY OF IRELAND, GALWAY, priority 2011, dated 2020)

What was measured:
R479/2012 9028 = assay: antibiotic susceptibility of strain; format: cell-based, P. aeruginosa; parameters: key: ‘S’ denotes sensitive; ‘R’ denotes resistant or increased tolerance; details: R479/2012 9028, cystic fibrosis sputum isolate
Method: (§1) The susceptibility of a number of P. aeruginosa strains to the KI-Dose-150 composition was tested using the method described in Example 1. […] The relative susceptibilities are described in Table 4.

R550/2012 9026 = assay: antibiotic susceptibility of strain; format: cell-based, P. aeruginosa; parameters: key: ‘S’ denotes sensitive; ‘R’ denotes resistant or increased tolerance; details: R550/2012 9026, cystic fibrosis sputum isolate
Method: as §1

R468/2012 9027 = assay: antibiotic susceptibility of strain; format: cell-based, P. aeruginosa; parameters: key: ‘S’ denotes sensitive; ‘R’ denotes resistant or increased tolerance; details: R468/2012 9027, cystic fibrosis sputum isolate
Method: as §1

R480/2012 9029 = assay: antibiotic susceptibility of strain; format: cell-based, P. aeruginosa; parameters: key: ‘S’ denotes sensitive; ‘R’ denotes resistant or increased tolerance; details: R480/2012 9029, cystic fibrosis sputum isolate
Method: as §1

P. aeruginosa D12 = assay: antibiotic susceptibility of strain; format: cell-based; parameters: key: ‘S’ denotes sensitive; ‘R’ denotes resistant or increased tolerance
Method: as §1

E. coli [1] = details: constant substrate and LP; glucose/glucose oxidase doubly diluted; Mueller Hinton broth
Method: (§2) Secondly, an assay where the concentration of substrates was maintained constant, and the H2O2 levels were varied was employed.
This was aliquoted (150 μl) to a 96 well plate.

bacterial cells [2] = assay: lower limits of components of the enzymatic system, LB broth; format: cell-based; details: for level of required substrate: glucose and glucose oxidase levels sufficient
Method: The lower limits of each of the components in an enzymatic system, required to produce inhibitory biocidal concentrations of the antimicrobial agents, were determined (for example Table 1 and Table 5). To establish these lower limits for each component, minimum inhibitory concentrations for each were calculated using doubling dilutions on a 96-well plate, in a manner similar to that described in Example 1, wherein the concentration of the component of choice is lowered until no effect on growth is noted. […] At levels below this, there was insufficient reactive oxygen species produced to result in effective bactericidal activity. The level of LP required for a reaction to produce the reactive oxygen species at the required concentrations was determined at 0.15 unit activity/ml (1 mM KI present). […] This embodiment of the invention suitable for the therapeutic treatment of mastitis also included beta-galactosidase to convert the lactose present in milk to glucose.

E. coli [3] = details: constant H2O2 (glucose oxidase) and LP; substrate 40 mg/ml doubly diluted; Mueller Hinton broth
Method: as §2
This was aliquoted (150 μl) to rows of a 96-well plate. […] The samples were doubly diluted as far as well 11, leaving well 12 as a control. The plate was incubated overnight at 37° C., and the optical density measured throughout.

[4] = system: Staphycoccus epidermidis central venous catheter-related biofilm; details: cited from earlier work; for result relative to gentamycin and vancomycin: biofilm lock therapy model; for duration of treatment after which biofilm cells were still recoverable: 10 g/L antibiotic
E. coli [5] = details: catalase treated
Method: The antimicrobial properties of these compositions were tested using a doubling dilution 96-well plate growth assay-based method. An aliquot of the composition was added to 150 μl growth medium (with 1-2% glucose present) containing 10^7-8 bacterial cells, and brought to a final volume of 300 μl. The composition concentration was doubly diluted by the removal of 150 μl of the mixture and transfer to the next well containing 150 μl of identical growth medium, lacking the ROS producing components. The optical density of the medium was measured for 24 hours at 595 nm. […] Controls included wells to which none of the composition was supplemented, or wherein, one of the components was removed from the composition.
A further example of a pre-activated system was employed as follows: solutions (4 ml volumes) containing 0.85 M H2O2 plus none or 2.5 M NaCl/5 μl chloroperoxidase (˜10,000 Units/ml) were allowed incubate. The solutions were then split and either catalase treated (50 μl of a 4 mg/ml, >1,000 units/mg) or were not catalase treated. The relative antimicrobial properties of the solutions were then tested using the protocol as described in Example 1 using E. coli supplemented broth.

E. coli ATCC 25922 = assay: hydrogen peroxide source growth inhibition assay with or without LP and KI; format: cell-based
Method: Aliquots (20 ml) of nutrient broth were inoculated with 10^8 cells of E. coli ATCC 25922, and 150 μl of the inoculated broth were added to wells in a 96 well growth plate. This was repeated with the inoculated broth being further supplemented with LP (37.5 μl of a 4 mg/ml solution) and KI (75 μl of a 40 mg/ml solution) to the medium.
Sources of hydrogen peroxide were added (150 μl) to well 1 and doubly diluted to well 11, but not to well 12, which acted as a control.

bacterial cells [6] = assay: potency in broth growth medium containing catalase; format: cell-based; details: hydrogen peroxide 0.85 M only
Method: This embodiment is referred to as ‘KI-Dose-150’.
The potency of the doses was not reversed. A 1:1024 dilution of the doses was inhibitory in the absence of catalase, and a 1:512 dilution of the doses was inhibitory in the presence of catalase.
As a comparison, the test was performed using only hydrogen peroxide (0.85 M), both in the presence and absence of catalase.

E. coli [7] = assay: milk inoculated with E. coli, enzymatic system with Beta-galactosidase; format: cell-based; details: component of the four-component system in milk inoculated with E. coli
[8] = effect of milk pasteurisation heating on the enzymatic components; format: physicochemical; details: held 15-600 seconds; activity read by E. coli total viable counts in milk after 24 hrs at 37° C.
Method: An attempt was made to determine the effects of the milk pasteurisation process on the enzymatic components, which can be used to produce the reactive oxygen species of the composition of the present invention. Working concentrations of the enzymes were heated in 50 μl volumes to 72° C. and held for 15, 30, 60, 300 or 600 seconds.
Appropriate concentrations of these aliquots were then transferred to milk containing the necessary components of the system and ˜10^8 cells/ml E. coli. Total viable counts were performed after 24 hrs incubation at 37° C. This allowed the determination of whether the enzymes were still active after heating.

[9] = nutrient broth supplemented with KI and LP

NCC[C@H](O)C(=O)N[C@@H]1C[C@H](N)[C@@H](O[C@H]2O[C@H](CN)[C@@H](O)[C@H](O)[C@H]2O)[C@H](O)[C@H]1O[C@H]1O[C@H](CO)[C@@H](O)[C@H](N)[C@H]1O [Amikacin]
susceptibility of the strain to the antibiotic (R479/2012 9028): R
susceptibility of the strain to the antibiotic (R550/2012 9026): R
susceptibility of the strain to the antibiotic (R468/2012 9027): R
susceptibility of the strain to the antibiotic (R480/2012 9029): R

O=C(O)c1cn(C2CC2)c2cc(N3CCNCC3)c(F)cc2c1=O [Ciprofloxacin]
susceptibility of the strain to the antibiotic (P. aeruginosa D12): R
susceptibility of the strain to the antibiotic (R550/2012 9026): R
susceptibility of the strain to the antibiotic (R480/2012 9029): R

[I-].[K+] [Iodide, potassium iodide]
number of dilutions of the H2O2 producing sample with inhibition (E. coli [1]): six
level of required substrate (bacterial cells [2]): approximately 0.5 mM
last doubling dilution with substrate level sufficient for complete inhibition (E. coli [3]): 8

N#C[S-].[K+] [Thiocyanate, potassium thiocyanate]
number of dilutions of the H2O2 producing sample with inhibition (E. coli [1]): two
level of required substrate (bacterial cells [2]): approximately 0.5 mM
last doubling dilution with substrate level sufficient for complete inhibition (E. coli [3]): 9

NC[C@H]1O[C@H](O[C@H]2[C@H](O)[C@@H](O[C@H]3O[C@H](CO)[C@@H](O)[C@H](N)[C@H]3O)[C@H](N)C[C@@H]2N)[C@H](N)C[C@@H]1O [Tobramycin]
susceptibility of the strain to the antibiotic (R479/2012 9028): R
susceptibility of the strain to the antibiotic (R550/2012 9026): R

CC(=O)NC[C@H]1CN(c2ccc(N3CCN(C(=O)CO)CC3)c(F)c2)C(=O)O1 [eperezolid]
result relative to gentamycin and vancomycin [4]: better results

OO [hydrogen peroxide]
dilutions at which inhibition of the bacteria was noted (E. coli [5]): no inhibition
greatest dilution of the hydrogen peroxide source inhibitory to E. coli (E. coli ATCC 25922; [9]): 1:32 dilution still not inhibitory
effect of catalase on the inhibitory nature (bacterial cells [6]): completely reverse the inhibitory nature

CC(=O)NC[C@H]1CN(c2ccc(N3CCOCC3)c(F)c2)C(=O)O1 [linezolid]
result relative to gentamycin and vancomycin [4]: better results

O=C([O-])[O-].O=C([O-])[O-].OO.OO.OO.[Na+].[Na+].[Na+].[Na+] [sodium percarbonate solution, sodium percarbonate]
greatest dilution of the hydrogen peroxide source inhibitory to E. coli (E. coli ATCC 25922; [9]): no difference as regards inhibition
greatest dilution of the hydrogen peroxide source inhibitory to E. coli (E. coli ATCC 25922; nutrient broth without supplemented KI and LP): identical to that observed following direct H2O2 addition

CN[C@H](CC(C)C)C(=O)N[C@H]1C(=O)N[C@@H](CC(N)=O)C(=O)N[C@H]2C(=O)N[C@H]3C(=O)N[C@H](C(=O)N[C@H](C(=O)O)c4cc(O)cc(O)c4-c4cc3ccc4O)[C@H](O)c3ccc(c(Cl)c3)Oc3cc2cc(c3O[C@@H]2O[C@H](CO)[C@@H](O)[C@H](O)[C@H]2O[C@H]2C[C@](C)(N)[C@H](O)[C@H](C)O2)Oc2ccc(cc2Cl)[C@H]1O [vancomycin]
duration of treatment after which biofilm cells were still recoverable [4]: 7 days

Gentamicin
duration of treatment after which biofilm cells were still recoverable [4]: 10 days
susceptibility of the strain to the antibiotic (R479/2012 9028): R
susceptibility of the strain to the antibiotic (R550/2012 9026): R
susceptibility of the strain to the antibiotic (R480/2012 9029): R

Glucose oxidase
concentration sufficient to observe antibacterial activity (E. coli [7]): ≥ 3.75 mg/L
glucose oxidase level required (bacterial cells [2]; 0.5% glucose): 2 units/ml
glucose oxidase level required (bacterial cells [2]; 1% glucose): 1 units/ml
glucose oxidase level required (bacterial cells [2]; LB broth, 2% glucose, 120 mg/L KI, 320 units LP): at least 0.5 unit glucose oxidase/ml

lactoperoxidase
concentration sufficient to observe antibacterial activity (E. coli [7]): ≥ 12 mg/L
enzyme activity after heating to 72° C. [8]: demonstrated activity after 300 seconds heating
level of LP required (bacterial cells [2]; 1 mM KI present): 0.15 unit activity/ml
